Experiment [1] addresses Histone deacetylase 1 (Homo sapiens, UniProt Q13547). The experiment can be described thus: Identification of HDAC Enzyme Activity Inhibition (In Vitro). The method, then: (§1) For a HDAC1 assay, samples were treated at a concentration of 100, 1000 and 10000 nM. For a HDAC6 assay, samples were treated at a concentration of 0.1, 1, 10, 100 and 1000 nM.
The target of experiment [2] is T1, Histone deacetylase 6 (Homo sapiens, UniProt Q9UBN7).
T1 sequence (Q9UBN7 whole entry): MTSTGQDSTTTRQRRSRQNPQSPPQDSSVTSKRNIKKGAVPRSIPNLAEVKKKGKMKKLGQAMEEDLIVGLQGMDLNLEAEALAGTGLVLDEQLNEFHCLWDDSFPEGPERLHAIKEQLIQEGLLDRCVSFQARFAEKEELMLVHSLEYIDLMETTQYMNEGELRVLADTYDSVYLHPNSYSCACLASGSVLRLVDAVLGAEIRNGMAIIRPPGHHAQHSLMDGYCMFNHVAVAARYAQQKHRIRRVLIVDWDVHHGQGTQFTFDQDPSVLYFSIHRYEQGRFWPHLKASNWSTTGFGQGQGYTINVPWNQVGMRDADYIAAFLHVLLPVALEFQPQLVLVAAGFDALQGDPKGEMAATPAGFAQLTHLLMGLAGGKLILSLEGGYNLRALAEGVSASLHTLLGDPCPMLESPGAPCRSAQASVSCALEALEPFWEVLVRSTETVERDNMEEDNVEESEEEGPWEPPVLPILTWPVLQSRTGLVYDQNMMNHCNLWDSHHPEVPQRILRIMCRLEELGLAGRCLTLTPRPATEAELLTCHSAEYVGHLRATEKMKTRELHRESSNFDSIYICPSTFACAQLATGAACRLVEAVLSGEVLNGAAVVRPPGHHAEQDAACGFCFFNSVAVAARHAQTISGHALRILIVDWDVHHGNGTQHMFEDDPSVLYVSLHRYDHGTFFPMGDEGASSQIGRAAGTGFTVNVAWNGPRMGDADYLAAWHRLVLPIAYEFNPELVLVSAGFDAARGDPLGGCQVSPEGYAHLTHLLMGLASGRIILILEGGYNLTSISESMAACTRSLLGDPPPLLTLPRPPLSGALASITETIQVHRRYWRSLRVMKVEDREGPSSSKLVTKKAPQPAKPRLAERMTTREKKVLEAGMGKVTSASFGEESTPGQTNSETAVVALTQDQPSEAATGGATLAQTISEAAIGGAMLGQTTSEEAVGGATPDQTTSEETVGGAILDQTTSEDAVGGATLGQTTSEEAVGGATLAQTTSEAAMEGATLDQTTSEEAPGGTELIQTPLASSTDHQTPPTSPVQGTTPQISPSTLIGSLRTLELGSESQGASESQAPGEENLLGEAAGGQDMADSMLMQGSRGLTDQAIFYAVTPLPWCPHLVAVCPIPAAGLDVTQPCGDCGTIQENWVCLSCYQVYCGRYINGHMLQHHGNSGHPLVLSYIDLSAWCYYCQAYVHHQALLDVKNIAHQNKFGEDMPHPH
The description is as above. The method, then: as §1

Each structure is given as a SMILES string.

The IC50 is the concentration needed to halve the response being measured. High values mean lower potency, low ones higher potency.

Histone deacetylase 1, sequence (Q13547 whole entry): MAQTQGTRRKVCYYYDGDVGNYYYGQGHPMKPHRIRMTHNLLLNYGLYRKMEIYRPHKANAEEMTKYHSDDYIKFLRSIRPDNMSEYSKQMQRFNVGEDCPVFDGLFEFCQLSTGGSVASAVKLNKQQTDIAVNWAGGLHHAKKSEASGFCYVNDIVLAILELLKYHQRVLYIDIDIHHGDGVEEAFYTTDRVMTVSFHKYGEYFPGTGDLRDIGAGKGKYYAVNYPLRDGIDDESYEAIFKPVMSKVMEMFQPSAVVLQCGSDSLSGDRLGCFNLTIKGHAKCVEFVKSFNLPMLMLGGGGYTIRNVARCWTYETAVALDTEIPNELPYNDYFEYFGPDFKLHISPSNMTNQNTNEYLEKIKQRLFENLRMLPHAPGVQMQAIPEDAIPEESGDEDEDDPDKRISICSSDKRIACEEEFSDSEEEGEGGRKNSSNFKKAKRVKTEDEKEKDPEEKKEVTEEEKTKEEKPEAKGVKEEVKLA

For `CC1(C)C(=O)N(Cc2ccc(-c3nnc(C(F)F)o3)cn2)C(=O)c2ccc(N3CCN(CC(F)(F)F)CC3)cc21` [US12440484, Compound 141], the IC50 in experiment [1] is greater than 10 µM; in experiment [2] it was 0.052 µM.
For `COCCN1CCC(c2ccc3c(c2)C(=O)N(Cc2ccc(-c4nnc(C(F)F)o4)cn2)C(=O)C3(C)C)CC1` [US12440484, Compound 151], the IC50 in experiment [1] is greater than 10 µM; in experiment [2] it was 0.033 µM.
In the same order, the values of `O=c1c2ccccc2n(CCN2CCCCC2)c(=O)n1Cc1ccc(-c2nnc(C(F)F)o2)cc1F` [US12440484, Compound 10] are greater than 10 µM and 0.455 µM.
In the same order, the values of `CC1(C)C(=O)N(Cc2ccc(-c3nnc(C(F)F)o3)cn2)C(=O)c2ccc(N3CCCCC3)cc21` [US12440484, Compound 27] are greater than 10 µM and 0.043 µM.

The values are drawn from BindingDB's records for patent US12440484 (Chong Kun Dang Pharmaceutical, 2025).
